Results on 6 molecules are retold here after patent US9133099B2, “Compounds and their salts specific to the PPAR receptors and the EGF receptors and their use in the medical field” (Nogra Pharma Limited, priority 2005, dated 2015).

One experiment concerns DLD-1 cells. Nature of the experiment: Colon cancer cell growth, BrdU incorporation, DLD-1 cells. It counts as cell-based, human. The note with it: for effect on cell growth (in words) / inhibition at 500 µM / inhibition at 1000 µM / inhibition at 2500 µM / inhibition at 5000 µM / inhibition at 10000 µM: DLD-1 cells, 48 hours; for effect on cell growth (in words): 0.5-10 mM; for inhibition at 500 µM / inhibition at 1000 µM / inhibition at 2500 µM / inhibition at 5000 µM / inhibition at 10000 µM: Homo sapiens, BrdU; for inhibition at 500 µM: 0.5 mM; for inhibition at 1000 µM: 1 mM; for inhibition at 2500 µM: 2.5 mM; for inhibition at 5000 µM: 5 mM; for inhibition at 10000 µM / effect on cell growth at high doses (in words): 10 mM; for effect on cell growth at high doses (in words): differences among groups not statistically significant. Here is the method:
The following substances (i e 20, 34, 35, 39 and 40) were tested for their ability to modulate colon cancer cell growth. For this purpose, three human colon carcinoma cell lines (i.e. HT-29, HT-115 and DLD-1) were used. These cell types were selected on the basis of the cyclooxigenase-2 (COX-2) expression. Indeed. HT-115 cells express a biologically active COX-2, HT-29 cells express a non-functional COX-2 isoform, and DLD-1 are COX-2-deficient cells.
HT-29 and DLD-1 cells were cultured in McCoy and RPMI1640 media respectively, supplemented with 10% fetal bovine serum (FBS), 1% penicillin/streptomycin (P/S) and […] gentamycin. HT-115 were cultured in DMEM medium supplemented with 15% FBS and 1% P/S. Cells were maintained in a humidified Incubator at 37° C., in the presence of 5% CO2.
For cell growth assays, single-cell suspensions were plated at 2×10^3 cells/well (4×10^3 cells/well for HT115) in 96-well culture dishes in medium containing 0.5% FBS and allowed to adhere. The non-adherent cells were then removed, and fresh medium containing 0.5% FBS was added into each well. Cells were cultured in the presence or absence of the specified substances. Each substance was dissolved as a 25 mM stock solution in culture medium containing 0.5% FBS, and the pH of each stock solution was adjusted to 7.4, if necessary, with NaOH. Substances were used at a final concentration ranging from 0.5 to 10 mM.
Cell proliferation was determined by measuring the incorporation of 5-bromo-2′-deoxyuridine (BrdU) into DNA using a commercially available cell proliferation kit (Roche Diagnostics, Monza, Italy). BrdU was added to the cell cultures during the last 6 hours of incubation, and the level of BrdU-positive cells was assessed after 48 h culture by enzyme-linked immunosorbent assay (ELISA). Optical density (OD) was determined at 450 nm using an ELISA reader. Experiments were performed in triplicate and the results are reported as the mean t standard deviation (SD).
Cells were cultured in the presence or absence of the compounds, and cell growth was then assessed by the colorimetric (BrdU) assay after 48 hours culture.
On the technique in general: Uptake of a labelled nucleoside into DNA is a usual measure of proliferation.

A further experiment relates to HT-29 cells. Nature of the experiment: Colon cancer cell growth, BrdU incorporation, HT-29 cells. Format: cell-based, human. The note with it: 0.5-10 mM, 48 hours. Here is the method:
(§1) FIG. 3 and FIG. 4: Effect of the specified substances on the proliferation of human colon carcinoma cell lines (i.e. HT29, HT 115 and DLDI). Cells were treated with increasing concentrations of substances (0.5-10 mM)) for 48 hours and the proliferation was determined by using a colorimetric assay for the measurement of BrdU incorporation. Optical density (OD) was determined at 450 nm using an ELISA reader.
(§2) The following substances (i e 20, 34, 35, 39 and 40) were tested for their ability to modulate colon cancer cell growth. For this purpose, three human colon carcinoma cell lines (i.e. HT-29, HT-115 and DLD-1) were used. These cell types were selected on the basis of the cyclooxigenase-2 (COX-2) expression. Indeed. HT-115 cells express a biologically active COX-2, HT-29 cells express a non-functional COX-2 isoform, and DLD-1 are COX-2-deficient cells. […]
(§3) Cell proliferation was determined by measuring the incorporation of 5-bromo-2′-deoxyuridine (BrdU) into DNA using a commercially available cell proliferation kit (Roche Diagnostics, Monza, Italy). BrdU was added to the cell cultures during the last 6 hours of incubation, and the level of BrdU-positive cells was assessed after 48 h culture by enzyme-linked immunosorbent assay (ELISA). Optical density (OD) was determined at 450 nm using an ELISA reader. […]

In a further experiment the test system is HT-115 cells. Nature of the experiment: Colon cancer cell growth, BrdU incorporation, HT-115 cells. Format: cell-based, human. The following applies: 0.5-10 mM, 48 hours. Here is the method:
as §1, §2, §3

For a further experiment, the target named is T1, PPARγ (Homo sapiens, UniProt P37231).
T1 construct: transient transfections of epithelial cells with the renilla luciferase and PPRE plamids; endogenous in cells; host or cells: HT-29 human colon carcinoma cells
T1 sequence (P37231 1-505): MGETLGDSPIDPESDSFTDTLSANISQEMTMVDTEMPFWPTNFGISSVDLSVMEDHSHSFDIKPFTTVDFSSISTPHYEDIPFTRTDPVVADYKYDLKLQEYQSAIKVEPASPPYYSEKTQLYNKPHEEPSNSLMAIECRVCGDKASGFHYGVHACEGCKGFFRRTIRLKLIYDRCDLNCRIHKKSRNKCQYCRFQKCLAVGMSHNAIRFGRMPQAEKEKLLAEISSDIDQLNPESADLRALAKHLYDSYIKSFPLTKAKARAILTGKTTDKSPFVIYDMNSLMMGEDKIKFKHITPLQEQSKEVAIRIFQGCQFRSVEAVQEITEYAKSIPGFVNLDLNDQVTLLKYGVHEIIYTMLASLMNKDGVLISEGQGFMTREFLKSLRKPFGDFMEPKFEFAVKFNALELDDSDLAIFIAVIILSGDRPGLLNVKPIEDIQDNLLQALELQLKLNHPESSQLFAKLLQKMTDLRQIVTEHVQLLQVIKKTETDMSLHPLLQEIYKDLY
Nature of the experiment: PPARγ transcriptional activity, renilla luciferase/PPRE reporter gene in transfected HT-29 cells. Format: cell-based. The following applies: 24 hours. Here is the method:
Activation of PPARγ results in a cascade of reactions leading to a binding to specific DNA sequence elements termed peroxisome proliferator response elements (PPRE) (7-9).
We investigated PPARγ transcriptional activity by transient transfections of epithelial cells with the renilla luciferase and PPRE plamids. To evaluate if the new molecules have more efficacy than 5-ASA to stimulate PPARγ activation, we tested these molecules at a concentration of 1 mM. […] Cells were stimulated with the different molecules during 24 hours.
FIG. 2 represents all the results obtained for each molecule assessed in 2 or 3 experiments done in triplicate. Reproducibility between the different experiments is good and similar to data described in the literature.
In general terms: In a reporter assay the amount or activity of a reporter protein is the signal.

Take `Nc1cccc(CC(O)C(=O)O)c1` (racemic) [Compound 20, (±)-2-hydroxy-3-(3′-aminophenyl)-propanoic acid]: in the experiment on DLD-1 cells, the “effect on cell growth (in words)” value was “marked anti-proliferative effect in a dose-dependent fashion”, the inhibition at 500 µM came out at 4.3%, the inhibition at 1000 µM is 12.8% and the inhibition at 2500 µM was determined as 16.2%. Moreover, in the experiment on DLD-1 cells, 5000 µM produced 25.6% inhibition and 10000 µM produced 47% inhibition. Also, the “significance of cell growth inhibition (in words)” value with DLD-1 cells (final concentration of 5 or 10 mM, cell line not specified) is given as “significantly inhibit cell growth”. Besides, the “effect on cell growth (in words)” value in the experiment on HT-29 cells is recorded as “marked anti-proliferative effect in a dose-dependent fashion”. Also, in the experiment with HT-115 cells, the “effect on cell growth (in words)” value is recorded as “marked anti-proliferative effect in a dose-dependent fashion”.

Consider `COC(Cc1ccc(N)cc1)C(=O)O` (racemic) [Compound 34, (±)-2-methoxy-3-(4′-aminophenyl)-propionic acid], for which, at PPARγ (1 mM), the “increase of the reporter gene activity (PPARγ activity)” value (shortened to “increase of the reporter gene activity”) is given as 4.8±0.71 fold. Besides, in the experiment on DLD-1 cells, the “effect on cell growth at high doses (in words)” value is “slightly reduced the cell growth”, the inhibition at 500 µM turned out to be 0%, the inhibition at 1000 µM turned out to be 3.6% and testing at 2500 µM gave an inhibition of 1.8%. In the experiment on DLD-1 cells, this molecule yielded an inhibition at 5000 µM of 3.6% and an inhibition at 10000 µM of 15.1%.

For `COC(Cc1cccc(N)c1)C(=O)O` (racemic) [Compound 35, (±)-2-methoxy-3-(3′-aminophenyl)-propionic acid], at PPARγ (1 mM), the “increase of the reporter gene activity” value was found to be 2.64±0.40 fold. Besides, in the experiment on DLD-1 cells, the “effect on cell growth (in words)” value was “no inhibition in cell growth”, the inhibition at 500 µM turned out to be 0%, the inhibition at 1000 µM came out at 3.2% and testing at 2500 µM gave an inhibition of 1.6%. Moreover, in the experiment with DLD-1 cells, the inhibition at 5000 µM was determined as 6.4% and the inhibition at 10000 µM worked out at 4.8%.

Take `CCOC(Cc1ccc(N)cc1)C(=O)O` (racemic) [Compound 39, (±)-2-ethoxy 3-(4′-aminophenyl)-propionic acid]: at PPARγ (1 mM), the “increase of the reporter gene activity” value came out at 2.73±0.31 fold. In addition, in the experiment on DLD-1 cells, the “effect on cell growth at high doses (in words)” value is “slightly reduced the cell growth”, 500 µM produced 1.6% inhibition, testing at 1000 µM gave an inhibition of 3.3% and 2500 µM produced 8.2% inhibition. In the experiment with DLD-1 cells, this molecule returned an inhibition at 5000 µM of 11.5% and an inhibition at 10000 µM of 12.8%.

Consider `CCOC(Cc1cccc(N)c1)C(=O)O` (racemic) [Compound 40, (±)-2-ethoxy-3-(3′-aminophenyl)-propanoic acid], for which the “increase of the reporter gene activity” value on PPARγ (1 mM) was 3.4±0.97 fold. In addition, in the experiment with DLD-1 cells, the “effect on cell growth (in words)” value is “no inhibition in cell growth”, at 500 µM the inhibition was 2%, testing at 1000 µM gave an inhibition of 0% and 2500 µM produced 0% inhibition. In the experiment on DLD-1 cells, this molecule registered an inhibition at 5000 µM of 0% and an inhibition at 10000 µM of 2.7%.

For `Nc1ccc(O)c(C(=O)O)c1` [Compound 5-ASA, 5-amino salicylic acid, reference compound], on PPARγ (30 mM, positive control), the “increase of the reporter gene activity” value was 2.8±0.7 fold.

As a reminder, the inhibition is the share of the control response that was lost under treatment. Low values mean little suppression, high ones strong suppression.
